One may read the inhibition as the share of the control response that was lost under treatment. As usually defined, the IC50 is the concentration that inhibits the measured activity by half. The low end stands for greater potency, the high end for weaker potency.

SMILES strings stand for the structures. Where only a bound is given, the exact number is not on record here.

The values below come from publication PMC7311950, “Potent Tetrahydroquinolone Eliminates Apicomplexan Parasites” (Frontiers in Cellular and Infection Microbiology, 2020).

The target of one assay is T1, bovine cytochrome bc1 (Bos taurus, UniProt P00157).
T1 construct: Whole fresh bovine heart was collected after slaughter and transported in ice; from tissue; host or cells: bovine heart mitochondria; DDM-solubilised, DEAE-Sepharose and Sephacryl-S300 purified
Put plainly: Bovine cytochrome bc1 activity assay. The format is biochemical. The settings on record: read-out: Bovine Cytbc1 activity inhibition. As for the experimental part: Bovine cytochrome bc1 inhibition assay was carried out in 50 mM KPi pH 7.5, 2 mM EDTA, 10 mM KCN, 30 μM equine heart cytochrome c (Sigma Aldrich), and 2.5 nM bovine cytochrome bc1 at room temperature. 20 mM inhibitors dissolved in DMSO were added to the assay at a desired concentration without prior incubation. […] The reaction was initiated by the addition of 50 μM decylubiquinol (Abcam). The reduced cytochrome c was monitored by the different absorption between 550 and 542 nm using extinction coefficient of 18.1 mM^−1 cm^−1 in a SPECTRAmax Plus 384 UV-visible Spectrometer. The initial kinetic rate is determined as a zero-order reaction and used as the specific activity of cytochrome bc1.

Assay [1] has as its system T. gondii (Prugneaud strain expressing luciferase) tachyzoites. Put plainly: Type II Prugneaud luciferase tachyzoite infection of Balb/C mice, IVIS and brain cysts. The class given is in vivo, Toxoplasma gondii. As for the experimental part:
Balb/C mice were infected intraperitoneally (IP) with 20 × 10^3 T. gondii (Prugneaud strain expressing luciferase) tachyzoites. Treatment began 2 h later with JAG21 (5 mg/kg) which was dissolved in DMSO, administered IP in a total volume of 0.05 mL. Mice were imaged every second day starting on day 4 post infection using an IVIS Spectrum (Caliper Life Sciences) for […], with medium binning, 20 min post injection with 150 mg/kg of D-luciferin potassium salt solution.
Brain cysts were searched for in paraffin imbedded tissue of the surviving Prugneaud strain infected treated Balb/C mice in the IVIS study, 30 days after infection which was 16 days after treatment had been discontinued. All treated mice had survived. There were no surviving untreated mice in those experiments.

For assay [2], the system named is Human Foreskin Fibroblast (HFF). Put plainly: Cytotoxicity assay, WST-1 cell proliferation reagent on HFF. The format is cell-based. The settings on record: Homo sapiens, Fibroblast; supplement summary. Here is the method:
Toxicity assays used WST-1 cell proliferation reagent (Roche) as in Fomovska et al. ([2012a]). HFF were grown on a flat, clear-bottomed, black 96-well plate. Confluent HFF were treated with inhibitory compounds at concentrations of 10 and 50 μM. Compounds were diluted in IMDM-C, and 20 μL were added to each designated well, with triplicates for each condition. A gradient with 2-folddecreasing concentrations of DMSO from 10 to 0% in colorless, translucent IMDM-C was used as a control. The plate was incubated for 72 h at 37°C. Ten microlitre WST-1 reagent (Roche) were added to each well. Cells were incubated for 30–60 min. Absorbance was read using a fluorimeter at 420 nm. A higher degree of color change (and absorbance) indicated mitochondrial activity and cell viability.

Turning to `Cc1[nH]c2c(c(=O)c1-c1ccc(Oc3ccc(OC(F)(F)F)cc3)cc1)CCCC2` [JAG21, 2-Methyl-3-(4-(4-(Trifluoromethoxy)Phenoxy)Phenyl)-5,6,7,8-Tetrahydroquinolin-4-One], on bovine cytochrome bc1 (0.1 μM), the inhibition at 0.1 µM is 36%. The inhibition at 1 µM at bovine cytochrome bc1 (1 μM) was 63%. Moreover, in assay [1] (5 mg/kg/day IP), the “luciferase expressing parasites by IVIS” value is on record as “eliminates leuciferase expressing parasites”. The “survival of infected mice” value in assay [1] (5 mg/kg/day IP for 14 days) is on record as 100%. Besides, the cysts in brains result in assay [1] (treated first 14 days with 5 mg/kg/day IP, 5 mg/kg/day) is reported as “No cysts were found”. The same compound came in with an IC50 in assay [2] greater than 7.5 µM.
